Test results as given in US7122335B1, “Compounds and methods to enhance rAAV transduction” (priority 1999, dated 2006).
Entries after “also recorded” stand apart in the source; their conditions may differ. Peptide text beside a SMILES is read from it. * marks the point of attachment. Cbz = O=C(OCc1ccccc1)*

Experiments:
mouse liver = assay: rAAV (AV.Alkphos) gene transfer in mouse liver in vivo, portal vein; design: species or system C57B6 mice
Experimental: FIG. 19. […] Recombinant AV.Alkphos (5×10^10 particles) was administered to mouse liver either as virus alone in PBS, virus in combination with 40 μM Z-LLL in PBS, or virus in combination with 200 μM LLnL in PBS. Virus was directly instilled into portal vein of the C57B6 mice. AAV-mediated alkaline phosphatase transgene expression was evaluated by histology staining at 2 and 4 weeks post-infection in frozen tissue sections. The average percentage of the alkphos positive cells in all 6 liver lobes of each individual animal was quantified by NIH image analysis software. The data represents the mean (+/−SEM) of 3 independent mice for each time point in each group.
Recombinant AV.Alkphos (5×10^10 particles) was also administered to mouse liver either as virus alone in PBS, virus in combination with 40 μM Z-LLL in PBS, or virus in combination with 20 μM LLnL in PBS. Virus was directly instilled into portal vein of the C57B6 mice. AAV-mediated alkaline phosphatase transgene expression was evaluated by histology staining at 2 and 4 weeks post infection in frozen tissue sections ([…]).

[1] = tested on: polarized human bronchial epithelial cells; type: cell-based
Experimental: FIGS. 7A and 7B. Proteasome inhibitors differentially augment rAAV transduction from the apical or basolateral surfaces of airway epithelia. The efficiency and time course of rAAV transduction were evaluated in polarized airway epithelial cultures following infection with rAV.GFPori3 (MOI=10,000 particles/cell) in the presence or absence of 40 μM LLnL. Transgene expression was monitored by indirect fluorescence microscopy at the indicted time points by quantifying the mean number of GFP positive cells per 10× field (mean +/−SEM of 3 independent samples for each time point). The effect of LLnL treatment was compared between matched sets of tissue samples at each time point following infection from the apical (FIG. 7A) or basolateral (FIG. 7B) surfaces. The photomicrographs on the right side of each figure illustrate representative 20× fields for the 3 and 22 day post-infection time points.
FIG. 9. Effects of different agents on AAV transduction from the basal surface of polarized bronchial epithelia. Fully differentiated human bronchial airway epithelia were treated with the indicated agents at the time of AAV infection (MOI=10,000 particles/cell) from the basolateral surface. […] Since most of the tested agents (except for hydroxyurea) were dissolved in DMSO, a vehicle control of 1% (vol/vol) DMSO was also performed to exclude the possibility of a non-specific effect. GFP expression was monitored at 48 hours post-infection by counting the number of GFP positive cells per 10 random 10× fields in the culture dishes. The data represent the mean +/−SEM of three independent infections for each tested chemical.
FIG. 10. The proteasome inhibitor LLnL preferentially induces AAV transduction in ciliated cells. The cell types transduced by AAV were examined by alkaline phosphatase staining 3 days following basolateral infection of polarized epithelial cultures with AV.Alkphos infection (MOI=10,000 particles/cell) in the presence of or absence of 40 μM LLnL. […] 8 μm paraffin sections were used to histologically quantify the types of cells transduced. Three classifications were used, ciliated cells (with alkphos expression localized to the apical membrane and cilia), basal cells residing in the lower half of the epithelium with no contact with the lumen, and non-ciliated, columnar cells. Panel C (without LLnL) and D (with LLnL) show representative neutral red counter-stained cross-sections for each condition. The numbers of alkphos stained cells/2000 epithelial cells for the various cell types transduced by AAV are presented in panel E (mean +/−SEM from three independent Millicell insert samples).
FIGS. 11A and 11B. Optimization of LLnL-enhanced transduction in polarized bronchial epithelia. Differentiated transwell cultures were infected with AV.GFP3ori (10,000 particles/cell) from either the basolateral (FIG. 11A) or the apical (FIG. 11B) surface with the indicated treatments involving LLnL and/or EGTA. All infections were carried out for 24 hours and GFP transgene expression was monitored by indirect fluorescent microscopy at the indicated times. Data represent the mean (+/−SEM, N=6) for each experimental condition. Experiments were performed in triplicate on transwells derived from samples obtained from two different patients. […]

[2] = tested on: polarized human airway epithelia; assay: In situ localization of S35-labeled rAAV particles (photoemulsion, morphometry); type: cell-based; conditions: 2 hours post-infection, apical or basolateral infection
Experimental: FIG. 13. In situ localization of rAAV in the polarized airway epithelia using S^35 labeled virus. Polarized human airway epithelia were infected with S^35-labeled virus (MOI=50,000 particles/cell) from either the apical or basolateral side (+/−LLnL). At 2 hours post-infection, transwells were washed with media three times and fixed in 4% paraformaldehyde overnight prior to cryoprotection in sucrose and OCT embedding. 10 μm frozen sections were overlaid with photoemulsion and developed after 5 weeks of exposure. Panel A depicts the typical localization pattern following basolateral infection in the presence of LLnL. Arrows indicate nuclear-associated virus. Panel B presents enlargements of boxed regions in Panel A. Blinded morphometric quantification was performed by counting the number of nuclear-associated and cytoplasmic radioactive grains of 10 random fields, as shown in Panel A. A total of 60 cells was quantitated per field, to give a total of 600 cells per sample and 2400 cells per condition. Results in Panel C are the mean +/−SEM of four independent samples for each condition.
Cryosections of polarized airway epithelial cells infected with ^35S-labeled AV.GFP3ori (MOI=50,000 particles/cell) from the apical or basolateral sides in the presence or absence of LLnL were overlaid with photographic emulsion and exposed for 5 weeks prior to developing. […]

Compound | AAV-mediated gene transfer in mouse liver, in words (mouse liver; 40 μM Z-LLL co-administered, 2 and 4 weeks) | increase in rAAV transduction in the liver (mouse liver; 1 month post-infection) [fold] | time of peak augmentation in AAV transduction ([1]; LLnL and rAAV co-administered to the mucosal surface) [days post-infection] | maximal level of transgene expression relative to basal infection ([1]; apical infection with LLnL, by 30 days) | enhancement in rAAV transduction from the basolateral surface ([1]; basolateral (serosal) infection MOI 10,000, agent at time of infection, GFP at 48 hours/2 days, camptothecin 0.1 μM, etoposide 10 μM, hydroxyurea 40 mM, genistein 50 μM, LLnL 40 μM) | effect of repeated LLnL administration on transgene expression ([1]; basolateral infection, LLnL once every three days) | toxicity to cultured airway cells ([1]; continual exposure to 40 μM LLnL in basal medium after basolateral infection) | time of transient peak in gene expression ([1]; rAAV infection from the serosal surface in the presence of LLnL) [hours post-infection] | AV.Alkphos transduction ([1]; serosal application of AV.Alkphos, 40 μM LLnL, 3 days) | intracellular distribution of radiolabeled rAAV particles (nuclear vs cytoplasmic grains) [2]
CC(C)C[C@@H](C=O)NC(=O)[C@H](CC(C)C)NC(=O)[C@H](CC(C)C)NC(=O)OCc1ccccc1 [Z-LLL, N-carbobenzoxyl-L-leucinyl-L-leucinyl-L-leucinal] (Cbz-Leu-Leu-Leu-aldehyde) | enhances AAV-mediated gene transfer | 7 |  |  |  |  |  |  |  | 
N-acetyl-L-leucinyl-L-leucinal-L-norleucinal [LLnL] |  |  | 22 | one eighth | greater than 200 fold | increased length of peak transgene expression | toxic to cells and ablated transgene expression by 10 days | 72 | dramatic increase in AV.Alkphos transduction | significant increase in nuclear trafficking; also recorded: significant shift to nuclear associated grains
